According to the supplement of paper PMC10307832:

Key:
Experiment in all cases: relative viability (nuclei count vs DMSO), 5 days (fraction); higher = more cells survive
[1] = compound: Cc1cnc(Nc2ccc(OCCN3CCCC3)cc2)nc1Nc1cccc(S(=O)(=O)NC(C)(C)C)c1 [Fedratinib] + COc1cc2c(Oc3ccc(NC(=O)C4(C(=O)Nc5ccc(F)cc5)CC4)cc3F)ccnc2cc1OCCCN1CCOCC1 [Foretinib] (partner 0.25 µM)
Method in brief: (§1)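 One day after seeding in 1536-well plates, lung cancer cell lines were dosed by pin tool. Dosing was either single-drug or a fixed anchor-drug dose plus five library-drug doses (not always all listed) in √10 steps. After 5 days, nuclei were stained in one fix-and-stain step and counted on 4× images, and relative viability is the nuclei count of treated wells over that of vehicle wells, given as the median of duplicate plates.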

[2] = compound: COC1=CC=C(C=C1)COC2=C(C=C(C=C2)CC3=CN=C(N=C3N)N)OC [GW-2580] + CC(=O)Nc1cccc(-n2c(=O)n(C3CC3)c(=O)c3c(Nc4ccc(I)cc4F)n(C)c(=O)c(C)c32)c1 [Trametinib] (partner 0.02 µM)
Method in brief: as §1

[3] = compound: COC1=CC=C(C=C1)COC2=C(C=C(C=C2)CC3=CN=C(N=C3N)N)OC [GW-2580] + Cc1nc(NC(=O)N2CCC[C@H]2C(N)=O)sc1-c1ccnc(C(C)(C)C(F)(F)F)c1 [Alpelisib] (partner 2 µM)
Method in brief: as §1

[4] = compound: Cc1cnc(Nc2ccc(OCCN3CCCC3)cc2)nc1Nc1cccc(S(=O)(=O)NC(C)(C)C)c1 [Fedratinib] + N=C(N)NC(=N)NCCc1ccccc1 [Phenformin] (partner 250 µM)
Method in brief: as §1

[5] = compound: COC1=CC=C(C=C1)COC2=C(C=C(C=C2)CC3=CN=C(N=C3N)N)OC [GW-2580] + Cc1nc(Nc2ncc(C(=O)Nc3c(C)cccc3Cl)s2)cc(N2CCN(CCO)CC2)n1 [Dasatinib] (partner 0.075 µM)
Method in brief: as §1

Row | Cell Line | relative viability ([1]; first compound 0.1 µM) | relative viability ([1]; first compound 0.3162 µM) | relative viability ([1]; first compound 1 µM) | relative viability ([2]; first compound 0.08 µM) | relative viability ([2]; first compound 0.8 µM) | relative viability ([2]; first compound 2.53 µM) | relative viability ([2]; first compound 8 µM) | relative viability ([3]; first compound 0.08 µM) | relative viability ([3]; first compound 0.8 µM) | relative viability ([3]; first compound 2.53 µM) | relative viability ([3]; first compound 8 µM) | relative viability ([4]; first compound 0.1 µM) | relative viability ([4]; first compound 0.3162 µM) | relative viability ([4]; first compound 1 µM) | relative viability ([5]; first compound 0.08 µM) | relative viability ([5]; first compound 0.8 µM) | relative viability ([5]; first compound 2.53 µM) | relative viability ([5]; first compound 8 µM)
1 | 201T | 1.1 | 1.08 | 0.895 | 0.76 | 0.753 | 0.754 | 0.748 | 1.02 | 1.1 | 1.01 | 1.01 | 0.429 | 0.478 | 0.414 | 0.637 | 0.544 | 0.509 | 0.532
2 | A549 | 0.896 | 0.938 | 0.892 |  |  |  |  | 0.723 | 0.688 | 0.721 | 0.764 |  | 0.169 | 0.165 |  |  |  | 
3 | A-427 | 1.04 | 1 | 1.05 | 0.785 | 0.675 | 0.648 | 0.704 | 1.08 | 1.12 | 1.02 | 1.09 | 0.26 | 0.298 | 0.147 | 0.758 | 0.794 | 0.511 | 0.735
4 | ABC-1 | 1.03 | 1.22 | 0.96 |  |  |  |  | 1.36 | 0.944 | 0.93 | 0.891 | 0.265 | 0.23 | 0.209 | 0.559 | 0.675 | 0.55 | 0.534
5 | BEN | 0.685 | 0.683 | 0.472 | 1.05 | 1.1 | 0.898 | 0.979 | 0.996 | 1.07 | 1.04 | 1.03 | 0.251 | 0.231 | 0.292 | 0.267 | 0.397 | 0.222 | 0.308
6 | CAL-12T | 0.934 | 0.992 | 1.08 | 0.33 | 0.284 | 0.356 | 0.436 | 1.45 |  | 1.19 | 1.06 | 0.597 | 0.611 | 0.526 | 0.485 | 0.443 | 0.438 | 0.505
7 | COR-L23 | 0.912 | 0.838 | 0.921 | 0.684 | 0.632 | 0.549 | 0.67 | 0.856 | 0.83 | 0.611 | 0.815 | 0.438 | 0.412 | 0.442 | 0.566 | 0.502 | 0.519 | 0.464
8 | COR-L 105 | 0.866 | 1.03 | 0.676 | 0.404 | 0.409 | 0.418 | 0.442 | 0.91 | 1.28 | 0.946 | 0.902 | 0.398 | 0.429 | 0.433 | 0.314 | 0.373 | 0.28 | 0.342
9 | Calu-6 | 0.855 | 0.857 | 0.784 |  |  |  |  | 1.08 | 0.964 | 0.902 | 1.07 |  |  |  |  |  |  | 
10 | ChaGo-K-1 | 0.811 | 0.923 | 0.899 | 0.921 | 0.921 | 0.881 | 0.867 |  |  |  |  | 0.436 | 0.432 | 0.445 | 0.663 | 0.552 | 0.605 | 0.587
11 | EBC-1 | 0.112 | 0.103 | 0.1 |  |  |  |  | 0.91 | 1 | 0.746 | 0.887 |  |  |  |  |  |  | 
12 | EKVX | 0.791 | 0.687 | 0.828 | 0.337 | 0.474 | 0.461 | 0.345 | 0.898 | 1.02 | 0.91 | 0.874 | 0.251 | 0.265 | 0.246 | 0.613 | 0.655 | 0.431 | 0.527
13 | EMC-BAC-2 | 1 | 1.01 | 1 | 0.805 | 0.988 |  | 0.856 | 0.834 | 0.777 | 0.686 | 0.787 | 0.404 | 0.523 | 0.421 | 0.317 | 0.308 | 0.264 | 0.316
14 | EPLC-272H | 0.558 | 0.684 | 0.472 | 0.281 | 0.273 |  | 0.32 | 0.996 | 1.08 | 0.904 | 0.98 | 0.3 | 0.32 | 0.173 | 0.353 | 0.385 |  | 0.283
15 | H3255 | 0.82 | 0.766 | 0.877 | 0.512 | 0.627 | 0.44 | 0.553 | 0.659 | 0.846 | 0.686 | 0.676 | 0.377 | 0.362 | 0.418 | 0.287 | 0.436 | 0.345 | 0.281
16 | HARA | 0.948 | 0.493 | 0.782 | 0.753 | 0.714 | 0.59 | 0.274 | 0.958 | 0.927 | 0.578 | 0.8 | 0.364 | 0.448 | 0.411 | 0.276 | 0.253 | 0.261 | 0.0615
17 | HCC-15 | 1.02 | 1.01 | 0.86 | 0.393 | 0.412 | 0.337 | 0.307 | 0.915 | 0.894 | 0.87 | 0.82 | 0.43 | 0.464 | 0.399 | 0.639 | 0.73 | 0.629 | 0.578
18 | HCC-44 |  |  |  | 1.04 | 1.06 | 0.986 | 0.959 | 0.863 | 0.759 | 0.691 | 0.775 | 0.123 | 0.293 | 0.163 |  |  |  | 
19 | HCC-78 | 0.504 | 0.548 | 0.509 | 0.838 | 0.844 | 0.644 | 0.768 | 0.368 | 0.363 | 0.28 | 0.304 | 0.698 | 0.703 | 0.572 | 0.322 | 0.467 | 0.286 | 0.298
20 | HCC-366 | 0.918 | 0.922 | 0.911 | 0.344 | 0.401 | 0.295 | 0.412 | 0.367 | 0.575 | 0.43 | 0.355 | 0.482 | 0.673 | 0.642 | 0.711 | 0.759 | 0.603 | 0.563
